{
  "source": "patent US20150072416A1",
  "about": "“METABOLITE FOR IMPROVING PRODUCTION, MAINTENANCE AND PROLIFERATION OF PLURIPOTENT STEM CELLS, COMPOSITION COMPRISING THE SAME, AND METHOD OF CULTURING PLURIPOTENT STEM CELL USING THE SAME” (KOREA RESEARCH INSTITUTE OF BIOSCIENCE AND BIOTENOLOGY, priority 2012, published 2015)",
  "key": {"[1]": {"system": "H9 human embryonic stem cells", "assay": "Mitochondrial membrane potential of human embryonic stem cells by JC-1 staining", "assay_type": "cell-based", "conditions": "0.1 mM nicotinamide in mTeSR1", "description": "In an example of the present invention, the membrane potential (ΔΨm) of mitochondria was measured after treatment with nicotinamide. When human embryonic stem cells were maintained and cultured, the membrane potential of mitochondria in the human embryonic stem cells was measured by JC-1 staining after addition of various concentrations of nicotinamide to mTeSR1. After JC-1 staining, activated mitochondria are stained with red, and non-activated mitochondria are stained with green. The ratio of the number of red-stained mitochondria to the number of green-stained mitochondria is measured, and an increase in the ratio indicates an increase in activated mitochondria.\nIn addition, the present inventors measured the membrane potential (ΔΨm) of mitochondria. When human embryonic stem cells were maintained and cultured, various concentrations of nicotinamide were added to mTeSR1, and then the mitochondrial membrane potential of the human embryonic stem cells was measured by JC-1 staining. After JC-1 staining, activated mitochondria are stained with red, and non-activated mitochondria are stained with green. The ratio of the number of red-stained mitochondria to the number of green-stained mitochondria is measured, and an increase in the ratio indicates an increase in the number of activated mitochondria."}, "[2]": {"system": "human fibroblasts transfected with reprogramming factor OSKM", "assay": "Quantification of protein damage caused by oxidative stress", "assay_type": "cell-based", "conditions": "1 mM", "description": "On days 12, 19 and 26 of induction of reprogramming, protein was isolated from a control group and a nicotinamide-treated group (Nam), after which it was quantified and treated with 2,4-dinitrophenylhydrazine to expose the carbonyl group. The protein was separated according to molecular weight using 10% SDS-polyacrylamide gel, and then protein damage caused by oxidative stress was analyzed using dinitrophenyl antibody. After normalization to the expression level of β-actin, the degree of damage was quantified relative to the degree of damage to hFFs taken as 1."}},
  "data": [
    {"compound": "NC(=O)c1cccnc1", "note": "[nicotinamide]", "values": [
      {"measurement": "number of activated mitochondria / mitochondrial membrane potential (JC-1 red/green)", "setting": "[1]", "value": "significantly increased"},
      {"measurement": "amount of damaged protein (oxidative stress)", "setting": "[2]", "value": "decreased"}
    ]}
  ]
}
